Results reported in patent US20060073156A1, “Fosfomycin and n-acetylcysteine for the treatment of biofilms caused by escheric ia coli and other pathogens of the urinary tract” (ZAMBON GROUP S.P.A., priority 2002, published 2006).
“And” between values parts separate entries of the source, which are not always exact repeats. Equal entries are not always repeated. Where two headings read alike, the source gives them in different places.

Legend:
[1] = system: Escherichia coli cells of the biofilm; assay: Bacterial viability of biofilm cells: sonication, seeding, count of viable units (CFU/ml); assay type: cell-based; details: for inhibition at 2000 µg/mL: Escherichia coli, fosfomycin 2000 mg/l alone, read-out: reductions in viable units
Description: (§1) The effects of NAC and fosfomycin on the biofilm produced by Escherichia coli have been evaluated on four strains designated 169, 255, 1263 and 1293, from the Microbiological Collection of the Genua University.
At the same time the biofilms treated in this way were submitted to sonication in order to disperse the cells that were still adhering, which were seeded on rich medium after suitable dilution for calculating the viable units that survived the various treatments.

[2] = system: Escherichia coli; assay: Bacterial growth of cultures with NAC added; assay type: cell-based; details: various concentrations of NAC added to the cultures; all E. coli strains tested
[3] = system: biofilm produced by Escherichia coli; assay: Disruption of biofilms: residual quantity of biofilm after treatment of initial (5 hours) and fully consolidated (48 hours) biofilms; assay type: cell-based; details: NAC alone; for reduction of mature biofilms: mature (48 hours) biofilms
Description: as §1
(§2) Formation of the biofilms was measured spectrophotometrically in U-bottom polystyrene microplates (Corning Incorporated, NY).
(§3) The biofilm adhering to the walls of the microplates was collected via washing with PBS, suspended in 10% sarbosyl and measured spectrophotometrically at 492 nm.
The same method was used for calculating the residual quantity of biofilm after treatment with NAC and fosfomycin, alone or associated, on Escherichia coli. For this purpose, biofilms with two different degrees of maturity: initial (5 hours) and fully consolidated (48 hours) were exposed to appropriate concentrations of NAC (from 8 mg/ml to 0.007 mg/ml) with addition of fosfomycin at the concentrations attainable in vivo in the urine.

[4] = system: S. epidermidis; details: J. Ant. Chem., 39, 643, (1997); cited from earlier work
[5] = system: biofilm produced by Escherichia coli; assay: Formation of biofilm, Crystal Violet staining in polystyrene microplates, measured at 492 nm; assay type: cell-based; details: various concentrations of NAC added to the cultures; three strains out of four
Description: as §1, §2
In more detail, the effect of NAC on the formation of biofilms was evaluated as follows: overnight cultures in Tryptic Soy Broth (TSB) with addition of glucose (0.25%). (TSBG) were diluted 1:100 in TSBG. These suspensions (100 μl each) were added to suitable dilutions of NAC at concentrations ranging from 8 mg/ml to 0.007 mg/ml respectively. After incubation at 37° C. for 24 hours, the microplates were washed three times with 10 mM phosphate buffer pH 7.4 (PBS), treated with Bouin fixative and then stained with Crystal Violet (0.01%).
as §3

[6] = system: biofilms of P. aeruginosa; details: Antimicrob. Agents Chemother., 35, 1258, (1991); cited from earlier work

SMILES | inhibition at 2000 µg/mL ([1]; fully consolidated biofilms) | inhibition at 2000 µg/mL ([1]; initial biofilms) | reductions in CFU/ml ([1]; fosfomycin 128 mg/l alone) | changes in bacterial growth [2] | reduction of initial biofilms ([3]; initial (5 hours) biofilms, strains not named) | reduction of mature biofilms ([3]; Escherichia coli 169) | reduction of mature biofilms ([3]; three strains out of four) | inhibition of biofilm formation [4] | reductions in biofilm (formation) [5] | ability to disrupt biofilms [6]
C[C@@H]1O[C@@H]1P(=O)(O)O [fosfomycin, Fosfomycin] | 36 to 85.7% | 98 to 99.5% | less than 1 logarithm | – | – | – | – | – | – | –
CC(=O)N[C@@H](CS)C(=O)O [NAC, N-acetylcysteine] | – | – | – | did not cause appreciable changes | 51.7% and 64.0% and 58.4% | 25.2% | 64.3% and 60.2% and 67.7% | inhibit their formation | greater than 50% | ability to disrupt biofilms
